Measurements from US7521418B2, “Use of a polyene macrolide antifungal agent in combination with a glycopeptide antibacterial agent” (Theravance, Inc., priority 2003, dated 2009).

Tests used:
A. flavus ATCC 64025 = assay: Checkerboard MIC assay, FICI; format: cell-based, Aspergillus flavus; conditions: combination with Compound 1
From the text: (§1) The following assay was used to determine the minimum inhibitory concentration (MIC) and fractional inhibitory concentration index (FICI) for combinations of an antifungal agent and a glycopeptide antibacterial agent. This assay and methods for calculating FICI are well known in the art. See, for example, Eliopoulos, E. G. and R. Moellering, Jr. “Antimicrobial Combinations” in Antibiotics in Laboratory Medicine, edited by V. Lorian, 4th Ed., Williams & Wilkins, Baltimore, MD, pp. 330-396 (1996); […] et al., Antimicrobial Agents and Chemotherapy 47(4):1416-1418 (2003); or […] et al., Antimicrobial Agents and Chemotherapy 46(10):3323-3326 (2002). […] The MIC of the glycopeptide antibacterial agent determined from this experiment was used in FIC calculations. […]

A. fumigatus ATCC 14110 = assay: Checkerboard MIC assay, FICI; format: cell-based, Aspergillus fumigatus; conditions: combination with Compound 1
From the text: as §1

| SMILES | FICI (A. flavus ATCC 64025) | FICI (A. fumigatus ATCC 14110) |
| --- | --- | --- |
| C[C@@H]1[C@H](O)[C@@H](C)/C=C/C=C/C=C/C=C/C=C/C=C/C=C/[C@H](O[C@@H]2O[C@H](C)[C@@H](O)[C@H](N)[C@@H]2O)C[C@@H]2O[C@](O)(C[C@@H](O)C[C@@H](O)[C@H](O)CC[C@@H](O)C[C@@H](O)CC(=O)O[C@H]1C)C[C@H](O)[C@H]2C(=O)O [Amphotericin B] | 0.51 | 0.31 |
| C[C@@H]1[C@H](O)[C@@H](C)/C=C/C=C/CC/C=C/C=C/C=C/C=C/C(O[C@H]2O[C@H](C)[C@@H](O)[C@H](N)[C@@H]2O)CC2O[C@](O)(CC(O)C(O)CCC(O)CC(O)CC(O)CC(=O)O[C@H]1C)CC(O)C2C(=O)O (stereo partly shown) [Nystatin] | 0.51 | 1.25 |
